# Patent US10219516B2, “Molecules having pesticidal utility, and intermediates, compositions, and processes, related thereto” (priority 2015, dated 2019)
# Like-named read-outs stand apart in the source and are kept apart here.
# Tests used:
# [1] = system: Beet Armyworm (Spodoptera exigua, LAPHEG); experiment: Bioassay on Beet Armyworm (BAW), 128-well diet tray assay; assay type: in vivo
# Procedure: (§1) Certain molecules disclosed in this document were tested against BAW and CL using procedures described in the following examples. In the reporting of the results, the “BAW & CL Rating Table” was used (See Table Section).
# Bioassays on BAW were conducted using a 128-well diet tray assay. One to five second instar BAW larvae were placed in each well (3 mL) of the diet tray that had been previously filled with approximately 1.5 mL of artificial diet to which 50 μg/cm^2 of the test molecule (dissolved in 50 μL of 90:10 acetone-water mixture) had been applied (to each of eight wells) and then allowed to dry. Trays were covered with a clear self-adhesive cover, vented to allow gas exchange, and held at 25° C., 14:10 light-dark for five to seven days. Percent mortality was recorded for the larvae in each well; activity in the eight wells was then averaged. The results are indicated in the table entitled “Table ABC: Biological Results” (See Table Section).
# [2] = system: Cabbage Looper (Trichoplusia ni, TRIPNI); experiment: Bioassay on Cabbage Looper (CL), 128-well diet tray assay; assay type: in vivo; conditions: for pest or weed control at 50 µg/cm2: Trichoplusia ni
# Procedure: as §1
# Bioassays on CL were conducted using a 128-well diet tray assay. one to five second instar CL larvae were placed in each well (3 mL) of the diet tray that had been previously filled with 1 mL of artificial diet to which 50 μg/cm^2 of the test molecule (dissolved in 50 μL of 90:10 acetone-water mixture) had been applied (to each of eight wells) and then allowed to dry. Trays were covered with a clear self-adhesive cover, vented to allow gas exchange, and held at 25° C., 14:10 light-dark for five to seven days. Percent mortality was recorded for the larvae in each well; activity in the eight wells was then averaged. The results are indicated in the table entitled “Table ABC: Biological Results” (See Table Section).
# [3] = Beet Armyworm, 128-well diet tray assay, read-out: BAW rating
# [4] = Cabbage Looper, 128-well diet tray assay, read-out: CL rating
# [5] = Species BAW (Beet Armyworm), read-out: BAW (Biological Results, rating)
# [6] = Species CL (Cabbage Looper), read-out: CL (Biological Results, rating)
smiles,measurement,setting,value
"O=C(Nc1ccc(F)cc1F)c1cc(NC(=O)[C@H]2[C@H](c3cc(Cl)cc(Br)c3)C2(Cl)Cl)ccc1Cl (relative stereo) [PF39, 5-(trans-3-(3-Bromo-5-chlorophenyl)-2,2-dichlorocyclopropane-1-carboxamido)-2-chloro-N-(2,4-difluorophenyl)benzamide]",pest or weed control at 50 µg/cm2,[1]; [3],50 to 100%
same,pest or weed control at 50 µg/cm2,[2]; [4],50 to 100%
"O=C(Nc1ccc(F)cc1)c1cc(NC(=O)[C@H]2[C@H](c3cc(Cl)cc(Cl)c3)C2(Cl)Cl)cc[n+]1[O-] (relative stereo) [F141, trans-4-(2,2-Dichloro-3-(3,5-dichlorophenyl)cyclopropane-1-carboxamido)-2-((4-fluorophenyl)carbamoyl)pyridine 1-oxide]",pest or weed control at 50 µg/cm2,[1]; [5],50 to 100%
same,pest or weed control at 50 µg/cm2,[2]; [6],50 to 100%
"Cc1cc(C(F)(C(F)(F)F)C(F)(F)F)cc(C)c1NC(=O)c1cc(NC(=O)[C@H]2[C@H](c3cc(Cl)cc(Cl)c3)C2(Cl)Cl)ccc1Cl (relative stereo) [PF60, trans-2-Chloro-5-(2,2-dichloro-3-(3,5-dichlorophenyl)cyclopropane-1-carboxamido)-N-(2,6-dimethyl-4-(perfluoropropan-2-yl)phenyl)benzamide]",pest or weed control at 50 µg/cm2,[1]; [3],50 to 100%
same,pest or weed control at 50 µg/cm2,[2]; [4],50 to 100%
"CN(C(=O)OC(C)(C)C)c1cc(NC(=O)c2cc(NC(=O)[C@H]3[C@H](c4cc(Cl)cc(Cl)c4)C3(Cl)Cl)ccc2Cl)ccc1F (relative stereo) [F471, trans-tert-Butyl (5-(2-chloro-5-(2,2-dichloro-3-(3,5-dichlorophenyl)cyclopropane-1-carboxamido)benzamido)-2-fluorophenyl)(methyl)carbamate]",pest or weed control at 50 µg/cm2,[1]; [3],50 to 100%
same,pest or weed control at 50 µg/cm2,[2]; [4],50 to 100%
"O=C(Nc1ccc(C(F)(F)F)cc1)c1cc(NC(=O)[C@H]2[C@H](c3cc(Cl)cc(Cl)c3)C2(Cl)Cl)ccc1Cl (relative stereo) [F6, trans-2-Chloro-5-(2,2-dichloro-3-(3,5-dichlorophenyl)cyclopropane-1-carboxamido)-N-(4-(trifluoromethyl)phenyl)benzamide]",pest or weed control at 50 µg/cm2,[1]; [5],50 to 100%
same,pest or weed control at 50 µg/cm2,[2]; [6],50 to 100%
"C=Cc1cc(Cl)cc(C2C(C(=O)Nc3ccc(Cl)c(C(=O)Nc4ccc(F)c(N(C(=O)OC(C)(C)C)C(=O)OC(C)(C)C)c4F)c3)C2(Cl)Cl)c1 (centres unmarked) [F523, tert-Butyl-N-((tert-butoxyl)carbonyl)-N-(3-(2-chloro-5-(2,2-dichloro-3-(3-chloro-5-vinylphenyl)cyclopropane-1-carboxamido)benzamido)-2,6-difluorophenyl)carbamate]",pest or weed control at 50 µg/cm2,[1]; [3],0 to 50%
"CNc1ccc(NC(=O)c2cc(NC(=O)[C@H]3[C@H](c4cc(Cl)cc(Cl)c4)C3(Cl)Cl)c(Cl)cc2Cl)cc1 (relative stereo) [F256, trans-2,4-dichloro-5-(2,2-dichloro-3-(3,5-dichlorophenyl)cyclopropane-1-carboxamido)-N-(4-(methylamino)phenyl)benzamide]",pest or weed control at 50 µg/cm2,[1]; [5],0 to 50%
"CC(C)(C)OC(=O)N(C(=O)OC(C)(C)C)c1c(F)ccc(NC(=O)c2cc(NC(=O)[C@H]3[C@H](c4cc(Cl)cc(C#N)c4)C3(Cl)Cl)ccc2Cl)c1F (relative stereo) [F515, trans-tert-Butyl-N-((tert-butoxy)carbonyl)-N-(3-(2-chloro-5-(2,2-dichloro-3-(3-chloro-5-cyanophenyl)cyclopropane-1-carboxamido)benzamido)-2,6-difluorophenyl)carbamate]",pest or weed control at 50 µg/cm2,[2]; [4],50 to 100%
"Cc1cc(N(C)C(=O)OC(C)(C)C)ccc1N(C)C(=O)c1cc(NC(=O)C2C(c3cc(Cl)c(Cl)c(Cl)c3)C2(Cl)Cl)ccc1Cl [F221, trans-tert-Butyl-(4-(2-chloro-5-((1R,3R)-2,2-dichloro-3-(3,4,5-trichlorophenyl)cyclopropane-1-carboxamido)-N-methylbenzamido)-3-methylphenyl)(methyl)carbamate]",pest or weed control at 50 µg/cm2,[1]; [5],50 to 100%
"CC(C)(C)OC(=O)N1CCc2cc(NC(=O)c3cc(NC(=O)[C@H]4[C@H](c5cc(Cl)cc(Cl)c5)C4(Cl)Cl)ccc3Cl)ccc21 (relative stereo) [F509, tert-Butyl 5-(2-chloro-5-(trans)-(2,2-dichloro-3-(3,5-dichlorophenyl)cyclopropane-1-carboxamido)benzamido)indoline-1-carboxylate]",pest or weed control at 50 µg/cm2,[1]; [3],0 to 50%
"CCc1cc(C(F)(C(F)(F)F)C(F)(F)C(F)(F)F)cc(CC)c1NC(=O)c1cc(NC(=O)[C@H]2[C@H](c3cc(Cl)cc(Cl)c3)C2(Cl)Cl)ccc1Cl (relative stereo) [PF59, trans-2-Chloro-5-(2,2-dichloro-3-(3,5-dichlorophenyl)cyclopropane-1-carboxamido)-N-(2,6-diethyl-4-(perfluorobutan-2-yl)phenyl)benzamide]",pest or weed control at 50 µg/cm2,[1]; [3],0 to 50%
"CCc1cc(C(F)(C(F)(F)F)C(F)(F)F)cc(CC)c1NC(=O)c1cc(NC(=O)[C@H]2[C@H](c3cc(Cl)cc(Cl)c3)C2(Cl)Cl)ccc1Cl (relative stereo) [PF61, trans-2-Chloro-5-(2,2-dichloro-3-(3,5-dichlorophenyl)cyclopropane-1-carboxamido)-N-(2,6-diethyl-4-(perfluoropropan-2-yl)phenyl)benzamide]",pest or weed control at 50 µg/cm2,[1]; [3],0 to 50%
"CC(C)(C)OC(=O)N(C(=O)OC(C)(C)C)c1c(F)ccc(NC(=O)c2cc(NC(=O)C3C(c4cc(Cl)cc(Br)c4)C3(Cl)Cl)ccc2Cl)c1F (centres unmarked) [F514, tert-Butyl-N-((tert-butoxy)carbonyl)-N-(3-(5-(3-(3-bromo-5-chlorophenyl)-2,2-dichlorocyclopropane-1-carboxamido)-2-chlorobenzamido)-2,6-difluorophenyl)carbamate]",pest or weed control at 50 µg/cm2,[1]; [3],50 to 100%
"O=C(Nc1cc(Cl)c(Cl)c(Cl)c1)c1cc(NC(=O)C2C(c3cc(Cl)cc(Cl)c3)C2(Cl)Cl)ccc1Cl (stereo not drawn) [PF119, 2-Chloro-5-(trans)-2,2-dichloro-3-(3,5-dichlorophenyl)cyclopropane-1-carboxamido)-N-(3,4,5-trichlorophenyl)benzamide]",pest or weed control at 50 µg/cm2,[1]; [3],50 to 100%
"CSc1nc(NC(=O)c2cc(NC(=O)[C@H]3[C@H](c4cc(Cl)cc(Cl)c4)C3(Cl)Cl)ccc2Cl)n[nH]1 (relative stereo) [F184, trans-2-Chloro-5-(2,2-dichloro-3-(3,5-dichlorophenyl)cyclopropane-1-carboxamido)-N-(5-(methylthio)-1H-1,2,4-triazol-3-yl)benzamide]",pest or weed control at 50 µg/cm2,[2]; [6],50 to 100%
"CC(C)(C)OC(=O)N(C(=O)OC(C)(C)C)c1c(F)ccc(NC(=O)c2cc(NC(=O)[C@H]3[C@H](c4cc(Cl)c(Cl)c(Cl)c4)C3(Cl)Cl)ccc2Cl)c1F [F501, tert-Butyl-N-((tert-butoxy)carbonyl)-N-(3-(2-chloro-5-((1R,3R)-2,2-dichloro-3-(3,4,5-trichlorophenyl)cyclopropane-1-carboxamido)benzamido)-2,6-difluorophenyl)carbamate]",pest or weed control at 50 µg/cm2,[1]; [3],0 to 50%
"CC(C)(C)OC(=O)N(C(=O)OC(C)(C)C)c1c(F)ccc(NC(=O)c2cc(NC(=O)[C@H]3[C@H](c4cc(Cl)cc(Cl)c4)C3(Cl)Cl)ccc2Cl)c1F (relative stereo) [F468, trans-tert-Butyl-N-((tert-butoxy)carbonyl)-N-(3-(2-chloro-5-(2,2-dichloro-3-(3,5-dichlorophenyl)cyclopropane-1-carboxamido)benzamido)-2,6-difluorophenyl)carbamate]",pest or weed control at 50 µg/cm2,[1]; [3],0 to 50%
"CC(C)(C)OC(=O)N(C(=O)OC(C)(C)C)c1c(F)ccc(NC(=O)c2cc(NC(=O)[C@H]3[C@H](c4cc(Cl)cc(Cl)c4)C3(Cl)Cl)ccc2Cl)c1F [F499, tert-Butyl-N-((tert-butoxy)carbonyl)-N-(3-(2-chloro-5-((1R,3R)-2,2-dichloro-3-(3,5-dichlorophenyl)cyclopropane-1-carboxamido)benzamido)-2,6-difluorophenyl)carbamate]",pest or weed control at 50 µg/cm2,[1]; [3],50 to 100%
"Cc1cc(N(C)C(=O)OC(C)(C)C)ccc1NC(=O)c1cc(NC(=O)[C@H]2[C@H](c3ccc(F)c(Cl)c3)C2(Cl)Cl)ccc1Cl (relative stereo) [F219, trans-tert-Butyl-(4-(2-chloro-5-(2,2-dichloro-3-(3-chloro-4-fluorophenyl)cyclopropane-1-carboxamido)benzamido)-3-methylphenyl)(methyl)carbamate]",pest or weed control at 50 µg/cm2,[1]; [5],50 to 100%
"CC(C)(C)OC(=O)N(C(=O)OC(C)(C)C)c1c(F)cc(F)cc1NC(=O)c1cc(NC(=O)[C@H]2[C@H](c3cc(Cl)cc(Cl)c3)C2(Cl)Cl)ccc1Cl [F521, tert-Butyl-N-((tert-butoxy)carbonyl)-N-(2-(2-chloro-5-((1R,3R)-2,2-dichloro-3-(3,5-dichlorophenyl)cyclopropane-1-carboxamido)benzamido)-4,6-difluorophenyl)carbamate]",pest or weed control at 50 µg/cm2,[2]; [4],0 to 50%
"CC1(c2cc(Cl)cc(Cl)c2)C(C(=O)Nc2ccc(Cl)c(C(=O)Nc3ccc(F)cc3)c2)C1(Cl)Cl (stereo not drawn) [F253, 2-Chloro-5-cis-2,2-dichloro-3-(3,5-dichlorophenyl)-3-methylcyclopropane-1-carboxamido)-N-(4-fluorophenyl)benzamide]","CL (Biological Results, rating)",[2]; Species CL (Cabbage Looper),A (50-100)
